Reference: patent US9475815B2, “Substituted benzothienyl-pyrrolotriazines and uses thereof” (Bayer Intellectual Property GmbH, priority 2012, dated 2016)
Structures can show the parent of a compound that is named as a salt.

Legend:
human mTOR = human mTOR (Homo sapiens (Human), UniProt P42345); assay: mTOR kinase assay (TR-FRET, for comparative purposes); assay type: biochemical; settings: for inhibition at 1 µM: read-out: mTOR % inhibition @ 1 μM, 1 μM test compound, 40 μM ATP, mean values
Method: mTOR inhibitory activity of the compounds of the present invention was quantified employing the TR-FRET based mTOR assay as described in the following paragraphs:
Test compounds were dissolved in DMSO to generate 10 mM stock solutions. These solutions were first 10-fold diluted by 100% DMSO to get 1 mM solutions in 100% DMSO, then 100-fold diluted by 50% DMSO to get 10 μM solutions in 50% DMSO.
(final concentration in the 10 μl assay volume=1 nM) in FRET buffer.
For this, the fluorescence emissions at 495 nm and 520 nm after excitation at 340 nm was measured in an Envision 2104 multilabel reader (Perkin-Elmer).

human FGFR-3 = human FGFR-3 (Homo sapiens (Human), UniProt P22607); assay: FGFR-3 kinase assay (TR-FRET); assay type: biochemical; settings: 10 μM ATP, 15 min pre-incubation with enzyme
human FGFR-1 = human FGFR-1 (Homo sapiens, UniProt P11362); assay: FGFR-1 high ATP kinase assay (TR-FRET)
Sequence of human FGFR-1 (P11362 22-822 limits assumed): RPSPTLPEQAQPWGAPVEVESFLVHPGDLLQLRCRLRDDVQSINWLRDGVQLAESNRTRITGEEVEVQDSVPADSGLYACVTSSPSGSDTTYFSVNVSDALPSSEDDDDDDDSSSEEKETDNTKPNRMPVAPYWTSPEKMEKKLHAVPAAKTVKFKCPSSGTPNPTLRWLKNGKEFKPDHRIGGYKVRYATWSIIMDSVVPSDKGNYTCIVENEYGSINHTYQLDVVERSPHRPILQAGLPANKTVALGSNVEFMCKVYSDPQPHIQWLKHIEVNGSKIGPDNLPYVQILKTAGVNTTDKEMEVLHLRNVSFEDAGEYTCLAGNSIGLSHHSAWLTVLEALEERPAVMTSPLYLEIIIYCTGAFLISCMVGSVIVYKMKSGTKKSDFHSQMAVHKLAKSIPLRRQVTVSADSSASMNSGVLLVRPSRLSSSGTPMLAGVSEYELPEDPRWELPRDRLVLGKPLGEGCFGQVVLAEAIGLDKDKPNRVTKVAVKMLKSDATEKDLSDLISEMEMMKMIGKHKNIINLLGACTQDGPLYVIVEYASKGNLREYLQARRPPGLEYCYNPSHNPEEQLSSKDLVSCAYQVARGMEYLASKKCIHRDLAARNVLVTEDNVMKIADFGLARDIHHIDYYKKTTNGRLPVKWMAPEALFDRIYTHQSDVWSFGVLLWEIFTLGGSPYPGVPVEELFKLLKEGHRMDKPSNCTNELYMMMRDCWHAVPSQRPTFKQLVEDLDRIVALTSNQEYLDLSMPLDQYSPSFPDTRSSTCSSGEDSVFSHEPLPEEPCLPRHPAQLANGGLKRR

Sequence of human FGFR-3 (P22607 397-806): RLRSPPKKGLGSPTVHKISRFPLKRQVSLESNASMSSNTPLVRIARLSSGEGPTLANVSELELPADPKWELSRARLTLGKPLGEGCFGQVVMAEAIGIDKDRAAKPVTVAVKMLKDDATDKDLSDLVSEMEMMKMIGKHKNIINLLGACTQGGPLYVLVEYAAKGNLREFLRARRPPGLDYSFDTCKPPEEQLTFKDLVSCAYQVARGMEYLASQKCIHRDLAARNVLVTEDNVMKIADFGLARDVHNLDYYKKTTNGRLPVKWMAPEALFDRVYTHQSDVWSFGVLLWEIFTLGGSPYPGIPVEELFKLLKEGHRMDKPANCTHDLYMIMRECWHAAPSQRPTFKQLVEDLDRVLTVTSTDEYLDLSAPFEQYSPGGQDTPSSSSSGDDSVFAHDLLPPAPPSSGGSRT
Sequence of human mTOR (P42345 1360-2549): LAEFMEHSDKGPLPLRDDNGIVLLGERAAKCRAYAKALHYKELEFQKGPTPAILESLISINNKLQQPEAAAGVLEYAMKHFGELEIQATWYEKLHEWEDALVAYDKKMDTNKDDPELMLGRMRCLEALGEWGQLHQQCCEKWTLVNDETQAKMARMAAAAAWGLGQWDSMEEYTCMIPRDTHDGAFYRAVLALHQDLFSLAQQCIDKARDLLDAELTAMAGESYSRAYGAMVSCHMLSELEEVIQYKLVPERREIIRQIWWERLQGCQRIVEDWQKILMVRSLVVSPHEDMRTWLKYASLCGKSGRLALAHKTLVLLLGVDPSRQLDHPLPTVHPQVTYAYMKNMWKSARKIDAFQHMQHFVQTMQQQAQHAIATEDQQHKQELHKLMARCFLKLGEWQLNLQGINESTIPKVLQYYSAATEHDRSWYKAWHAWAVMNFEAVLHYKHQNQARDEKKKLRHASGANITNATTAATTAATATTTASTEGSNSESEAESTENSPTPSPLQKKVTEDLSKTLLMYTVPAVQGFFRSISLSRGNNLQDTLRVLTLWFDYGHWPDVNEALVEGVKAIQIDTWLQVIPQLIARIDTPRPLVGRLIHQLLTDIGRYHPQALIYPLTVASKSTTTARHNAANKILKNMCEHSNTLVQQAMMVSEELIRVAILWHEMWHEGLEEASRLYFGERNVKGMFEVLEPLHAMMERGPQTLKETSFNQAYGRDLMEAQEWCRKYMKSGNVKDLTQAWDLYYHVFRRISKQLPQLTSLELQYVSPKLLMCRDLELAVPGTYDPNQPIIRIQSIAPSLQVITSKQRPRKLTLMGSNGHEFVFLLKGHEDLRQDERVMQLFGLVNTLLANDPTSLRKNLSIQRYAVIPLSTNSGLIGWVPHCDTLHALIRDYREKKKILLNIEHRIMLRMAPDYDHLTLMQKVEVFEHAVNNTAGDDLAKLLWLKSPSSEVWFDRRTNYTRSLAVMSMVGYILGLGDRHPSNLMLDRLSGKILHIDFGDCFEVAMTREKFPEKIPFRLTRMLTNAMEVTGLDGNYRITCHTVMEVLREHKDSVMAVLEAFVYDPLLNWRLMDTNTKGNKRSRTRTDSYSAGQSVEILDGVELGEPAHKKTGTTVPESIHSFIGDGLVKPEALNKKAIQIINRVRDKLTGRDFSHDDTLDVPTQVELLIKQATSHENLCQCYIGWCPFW

Molecule COc1cc(C)cc2cc(-c3cc(CN4CCC(O)CC4)n4ncnc(N)c34)sc12 [Example 88] has an inhibition at 1 µM (human mTOR) of 29.5%, an IC50 (human FGFR-3) of 21.3 nM and an IC50 (human FGFR-1) of 15.7 nM.

Molecule COc1cc(C)cc2cc(-c3cc(CN4CCCN(C)CC4)n4ncnc(N)c34)sc12 [Example 89] has an inhibition at 1 µM (human mTOR) of 28.7%, an IC50 (human FGFR-3) of 28.2 nM and an IC50 (human FGFR-1) of 24.9 nM.

Molecule COc1cc(C)cc2cc(-c3cc(CN4CC[C@@H](N(C)C)C4)n4ncnc(N)c34)sc12 [Example 90] has an inhibition at 1 µM (human mTOR) of 22.7%, an IC50 (human FGFR-3) of 30.3 nM and an IC50 (human FGFR-1) of 26 nM.

Molecule COc1cc(C)cc2cc(-c3cc(CN4CC(O)C4)n4ncnc(N)c34)sc12 [Example 91] has an inhibition at 1 µM (human mTOR) of 17.7%, an IC50 (human FGFR-3) of 23.9 nM and an IC50 (human FGFR-1) of 36.9 nM.

COc1cc(C)cc2cc(-c3cc(CN[C@@H](CC(N)=O)C(=O)O)n4ncnc(N)c34)sc12 [Example 92] showed an inhibition at 1 µM (human mTOR) of 19.9%, an IC50 (human FGFR-3) of 11.7 nM and an IC50 (human FGFR-1) of 46.2 nM.

With COc1cc(C)cc2cc(-c3cc(C(=O)N4CC[C@](C)(N)C4)n4ncnc(N)c34)sc12 [Example 97, [4-Amino-5-(7-methoxy-5-methyl-1-benzothiophen-2-yl)pyrrolo[2,1-f][1,2,4]triazin-7-yl][(3S)-3-amino-3-methylpyrrolidin-1-yl]methanone dihydrochloride] the inhibition at 1 µM (human mTOR) was 16.7%, the IC50 (human FGFR-3) was 9.9 nM and the IC50 (human FGFR-1) was 4.7 nM.

For COc1cc(C)cc2cc(-c3cc(C(=O)N4CCC(N(C)C)C4)n4ncnc(N)c34)sc12 (stereo not drawn) [Example 100], the inhibition at 1 µM (human mTOR) was 15.9%, the IC50 (human FGFR-3) was 35.9 nM and the IC50 (human FGFR-1) was 20.7 nM.

In the case of COc1cc(C)cc2cc(-c3cc(C(=O)N4CCC(O)CC4)n4ncnc(N)c34)sc12 [Example 101], the inhibition at 1 µM (human mTOR) is reported as 24.9%, the IC50 (human FGFR-3) is reported as 29.1 nM and the IC50 (human FGFR-1) is reported as 29.8 nM.

COc1cc(C)cc2cc(-c3cc(C(=O)N4CCNC(C(N)=O)C4)n4ncnc(N)c34)sc12 (stereo not drawn) [Example 102] was tested, and the inhibition at 1 µM (human mTOR) was 12.8%, the IC50 (human FGFR-3) was 89.6 nM and the IC50 (human FGFR-1) was 48.8 nM.

COc1cc(C)cc2cc(-c3cc(C(=O)N4CCNC(C)(C)C4)n4ncnc(N)c34)sc12 [Example 103] was tested, and the inhibition at 1 µM (human mTOR) was 9.2%, the IC50 (human FGFR-3) was 114 nM and the IC50 (human FGFR-1) was 51.7 nM.

For COc1cc(C)cc2cc(-c3cc(C(=O)N4CCC[C@@H](N)C4)n4ncnc(N)c34)sc12 [Example 104], the inhibition at 1 µM (human mTOR) was 17.9%, the IC50 (human FGFR-3) was 14.6 nM and the IC50 (human FGFR-1) was 28.1 nM.

COc1cc(C)cc2cc(-c3cc(COCCN4CCCC4)n4ncnc(N)c34)sc12 [Example 107, 5-(7-Methoxy-5-methyl-1-benzothiophen-2-yl)-7-{[2-(pyrrolidin-1-yl)ethoxy]methyl}pyrrolo-[2,1-f][1,2,4]triazin-4-amine hydrochloride] showed an inhibition at 1 µM (human mTOR) of 15%, an IC50 (human FGFR-3) of 46.1 nM and an IC50 (human FGFR-1) of 57.3 nM.

COc1cc(C)cc2cc(-c3cc(COC[C@@H]4CCCN4)n4ncnc(N)c34)sc12 [Example 109] was tested, and the “mTOR % inhibition @ 1 μM” value (human mTOR; 1 μM test compound, 40 μM ATP, mean values) was “no inhib. effect detect”, the IC50 (human FGFR-3) was 37.1 nM and the IC50 (human FGFR-1) was 65.6 nM.

Molecule COc1cc(C)cc2cc(-c3cc(COC[C@H]4CCCN4)n4ncnc(N)c34)sc12 [Example 110] has an inhibition at 1 µM (human mTOR) of 4.9%, an IC50 (human FGFR-3) of 57.4 nM and an IC50 (human FGFR-1) of 51.6 nM.

COc1cc(C)cc2cc(-c3cc(COC[C@H](C)N)n4ncnc(N)c34)sc12 [Example 111] gave an inhibition at 1 µM (human mTOR) of 1.1%, an IC50 (human FGFR-3) of 85.6 nM and an IC50 (human FGFR-1) of 82.2 nM.

CCC(N)COCc1cc(-c2cc3cc(C)cc(OC)c3s2)c2c(N)ncnn12 (stereo not drawn) [Example 112] was tested, and the inhibition at 1 µM (human mTOR) was 8.8%, the IC50 (human FGFR-3) was 102 nM and the IC50 (human FGFR-1) was 67.2 nM.

COc1cc(C)cc2cc(-c3cc(COC4CCOC4)n4ncnc(N)c34)sc12 (stereo not drawn) [Example 113] gave an inhibition at 1 µM (human mTOR) of 29.7%, an IC50 (human FGFR-3) of 64.7 nM and an IC50 (human FGFR-1) of 83.1 nM.

Work on CCNC(=O)COCc1cc(-c2cc3cc(C)cc(OC)c3s2)c2c(N)ncnn12 [Example 114] yielded an inhibition at 1 µM (human mTOR) of 27.7%, an IC50 (human FGFR-3) of 30.5 nM and an IC50 (human FGFR-1) of 65.3 nM.

COc1cc(C)cc2cc(-c3cc(COCCNC(C)C)n4ncnc(N)c34)sc12 [Example 115] showed an inhibition at 1 µM (human mTOR) of 6.5%, an IC50 (human FGFR-3) of 63.9 nM and an IC50 (human FGFR-1) of 78.6 nM.

For COc1cc(C)cc2cc(-c3cc(COCCN4CCOC4=O)n4ncnc(N)c34)sc12 [Example 116], the inhibition at 1 µM (human mTOR) was 28%, the IC50 (human FGFR-3) was 71.5 nM and the IC50 (human FGFR-1) was 90.3 nM.

CNCCOCc1cc(-c2cc3cc(C)cc(OC)c3s2)c2c(N)ncnn12 [Example 117] was tested, and the inhibition at 1 µM (human mTOR) was 0.3%, the IC50 (human FGFR-3) was 34.8 nM and the IC50 (human FGFR-1) was 36.1 nM.

With COc1cc(C)cc2cc(-c3cc(CO[C@@H]4CCNC4)n4ncnc(N)c34)sc12 [Example 118] the inhibition at 1 µM (human mTOR) was 18.4%, the IC50 (human FGFR-3) was 45 nM and the IC50 (human FGFR-1) was 26.1 nM.

For COc1cc(C)cc2cc(-c3cc(COCC(C)N)n4ncnc(N)c34)sc12 (stereo not drawn) [Example 119], the inhibition at 1 µM (human mTOR) was 25.1%, the IC50 (human FGFR-3) was 29.7 nM and the IC50 (human FGFR-1) was 26.7 nM.

With COc1cc(C)cc2cc(-c3cc(COCCN)n4ncnc(N)c34)sc12 [Example 120] the inhibition at 1 µM (human mTOR) was 14.8%, the IC50 (human FGFR-3) was 53.9 nM and the IC50 (human FGFR-1) was 50.8 nM.

CCCc1nccn1Cc1cc(-c2cc3cc(C)cc(OC)c3s2)c2c(N)ncnn12 [Example 121] was tested, and the inhibition at 1 µM (human mTOR) was 26.8%, the IC50 (human FGFR-3) was 65.9 nM and the IC50 (human FGFR-1) was 33.3 nM.
